Tests used:
PIK3CA = PIK3CA (UniProt P42336); test: PI 3-Kinase Inhibition; details: for inhibition: concentration not given here
PIK3CA (rat) = test: Hexosaminidase Secretion Inhibition (RBL-2H3 cells); details: rbl2h3

PIK3CA, sequence (P42336 whole entry, looked up): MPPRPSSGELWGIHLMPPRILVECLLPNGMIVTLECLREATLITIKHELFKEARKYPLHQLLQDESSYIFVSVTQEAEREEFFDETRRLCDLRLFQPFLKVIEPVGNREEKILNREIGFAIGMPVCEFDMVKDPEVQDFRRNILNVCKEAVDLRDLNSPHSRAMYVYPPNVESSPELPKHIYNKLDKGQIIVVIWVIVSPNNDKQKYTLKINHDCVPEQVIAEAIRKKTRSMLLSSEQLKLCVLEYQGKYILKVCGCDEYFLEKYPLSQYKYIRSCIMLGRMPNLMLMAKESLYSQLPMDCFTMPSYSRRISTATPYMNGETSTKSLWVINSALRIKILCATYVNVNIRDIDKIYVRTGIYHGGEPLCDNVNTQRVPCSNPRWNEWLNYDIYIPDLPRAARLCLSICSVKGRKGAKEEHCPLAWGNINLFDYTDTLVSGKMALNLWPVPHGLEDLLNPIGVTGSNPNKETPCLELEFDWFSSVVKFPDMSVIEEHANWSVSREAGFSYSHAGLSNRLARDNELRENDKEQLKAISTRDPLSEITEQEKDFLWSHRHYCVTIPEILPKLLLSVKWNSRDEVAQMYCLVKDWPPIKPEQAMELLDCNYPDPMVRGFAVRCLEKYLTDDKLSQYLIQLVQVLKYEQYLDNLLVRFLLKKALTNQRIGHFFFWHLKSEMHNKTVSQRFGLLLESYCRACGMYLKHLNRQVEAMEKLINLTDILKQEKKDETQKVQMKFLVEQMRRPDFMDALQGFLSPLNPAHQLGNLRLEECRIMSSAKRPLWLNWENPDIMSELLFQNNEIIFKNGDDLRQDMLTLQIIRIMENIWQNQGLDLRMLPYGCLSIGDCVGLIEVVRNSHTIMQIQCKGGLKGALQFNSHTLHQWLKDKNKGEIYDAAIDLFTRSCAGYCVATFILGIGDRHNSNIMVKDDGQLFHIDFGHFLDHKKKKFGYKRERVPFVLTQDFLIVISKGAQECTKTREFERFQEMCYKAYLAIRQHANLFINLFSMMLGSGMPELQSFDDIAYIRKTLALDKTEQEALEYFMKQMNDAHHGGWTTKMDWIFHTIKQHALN

| SMILES | inhibition (PIK3CA) | IC50 (PIK3CA) | IC50 (PIK3CA (rat)) |
| --- | --- | --- | --- |
| CCCCCCCCCCCCCCCC(=O)OC[C@@H](COP(=O)(O)O[C@H]1[C@H](O)[C@@H](O)[C@H](O)[C@@H](CF)[C@H]1O)OC(=O)CCCCCCCCCCCCCCC | 60% | – | – |
| CCCCCCCCCCCCCCCC(=O)OC[C@@H](COP(=O)(O)O[C@H]1[C@H](O)[C@@H](O)[C@H](O)[C@@H](CBr)[C@H]1O)OC(=O)CCCCCCCCCCCCCCC | 60% | – | – |
| CCCCCCCCCCCCCCCC(=O)OC[C@@H](COP(=O)(O)O[C@H]1[C@H](O)[C@@H](O)[C@H](O)[C@@H](CI)[C@H]1O)OC(=O)CCCCCCCCCCCCCCC | 60% | – | – |
| CCCCCCCCCCCCCCCC(=O)OC[C@@H](COP(=O)(O)O[C@H]1[C@H](O)[C@@H](O)[C@H](O)[C@@H](CO)[C@H]1O)OC(=O)CCCCCCCCCCCCCCC | 85% | 35 µM | – |

Next, values leading:

| inhibition (PIK3CA) | IC50 (PIK3CA) | IC50 (PIK3CA (rat)) | SMILES |
| --- | --- | --- | --- |
| > 98% | 20 µM | 17 µM | CCCCCCCCCCCCCCCC(=O)OC[C@@H](COP(=O)(O)O[C@H]1[C@H](O)[C@@H](O)[C@H](O)[C@@H](CN)[C@H]1O)OC(=O)CCCCCCCCCCCCCCC |
| 60% | – | – | CCCCCCCCCCCCCCCC(=O)OC[C@@H](COP(=O)(O)O[C@H]1[C@H](O)[C@@H](O)[C@H](O)[C@@H](CCl)[C@H]1O)OC(=O)CCCCCCCCCCCCCCC |
| – | – | 1.8 µM | O=c1cc(N2CCOCC2)oc2c(-c3ccccc3)cccc12 |
